According to patent publication US9994571B2, “10-substituted morphinan hydantoins” (Purdue Pharma L.P., priority 2013, dated 2018):
Like-named read-outs stand apart in the source and are kept apart here.

Columns and labels:
μ-opioid receptor [1] = molecular target: T1, μ-opioid receptor (Homo sapiens (Human), UniProt P35372); assay: μ-opioid receptor [35S]GTPγS functional assay; format: biochemical
Method: [^35S]GTPγS functional assays were conducted using freshly thawed μ-receptor membranes prepared in-house from a cell line expressing recombinant μ opioid receptor in a HEK-293, CHO or U-2 OS cell background, or purchased from a commercial source (Perkin Elmer, Shelton, Conn.; or DiscovRx, Fremont, Calif.). Assay reactions were prepared by sequentially adding the following reagents to binding buffer (100 mM NaCl, 10 mM MgCl2, 20 mM HEPES, pH 7.4) on ice (final concentrations indicated): membrane protein (0.026 mg/mL), saponin ([…]), GDP ([…]) and [^35S]GTPγS (0.20 nM; Perkin Elmer, Shelton, Conn.). The prepared membrane solution (190 l/well) was transferred to 96-shallow well polypropylene plates containing 10 μl of 20× concentrated stock solutions of the agonist [D-Ala^2, N-methyl-Phe^4 Gly-ol^5]-enkephalin (DAMGO) prepared in dimethyl sulfoxide (DMSO). Plates were incubated for 30 min at about 25° C. with shaking. Reactions were terminated by rapid filtration onto 96-well Unifilter GF/B filter plates (Perkin Elmer, Shelton, Conn.) using a 96-well tissue harvester (Perkin Elmer, Shelton, Conn.) followed by three filtration washes with 200 μl of ice-cold wash buffer (10 mM NaH2PO4, 10 mM Na2HPO4, pH 7.4). Filter plates were subsequently dried at 50° C. for 2-3 hours. BetaScint scintillation cocktail (Perkin Elmer, Shelton, Conn.) was added (50 μl/well) and plates were counted using a Packard Top-Count for 1 min/well. Data were analyzed using the sigmoidal dose-response curve fitting functions in GraphPad PRISM v. 3.0, or an in-house function for non-linear, sigmoidal dose-response curve-fitting.
μ GTP EC50 is the concentration of a compound providing 50% of the maximal response for the compound at a μ-opioid receptor.
μ GTP Emax (%) is the maximal effect elicited by a compound relative to the effect elicited by DAMGO, a standard μ agonist. Generally, the μ GTP Emax (%) value measures the efficacy of a compound to treat or prevent pain or other Conditions.
(§1) In TABLE 2, activity response of certain Compounds of the Invention to the μ- and κ-opioid receptors was determined as described above for functional assays using U-2 OS cells.

κ opioid receptor [2] = molecular target: T2, κ opioid receptor (Homo sapiens (Human), UniProt P41145); assay: κ-opioid receptor radioligand dose-displacement binding assay ([3H]-U69,593); details: binding assays using HEK-293 cells; read-out: Opioid Receptor Ki (nM) κ
Method: Membranes from HEK-293 cells, CHO or U-2 OS cells expressing the recombinant human κ opioid receptor (κ) were prepared by lysing cells in ice cold hypotonic buffer (2.5 mM MgCl2, 50 mM HEPES, pH 7.4) (10 mL/10 cm dish) followed by homogenization with a tissue grinder/Teflon pestle. Membranes from a cell line naturally expressing kappa opioid receptor can also be used. Membranes were collected by centrifugation at 30,000×g for 15 min at 4° C. and pellets were resuspended in hypotonic buffer to a final concentration of 1-3 mg/mL. Protein concentrations were determined using the BioRad protein assay reagent with bovine serum albumen as standard. Aliquots of K receptor membranes were stored at −80° C.
Radioligand dose displacement assays used 0.4 nM [^3H]-U69,593 (GE Healthcare, Piscataway, N.J.; 40 Ci/mmole) with 15 μg membrane protein (recombinant κ opioid receptor expressed in HEK 293 cells; in-house prep) in a final volume of 200 μl binding buffer (5% DMSO, 50 mM Trizma base, pH 7.4). Non-specific binding was determined in the presence of 10 μM unlabeled naloxone or U69,593. All reactions were performed in 96-well polypropylene plates for 1 hour at a temperature of about 25° C. Binding reactions were terminated by rapid filtration onto 96-well Unifilter GF/C filter plates (Perkin Elmer, Shelton, Conn.) presoaked in 0.5% polyethylenimine (Sigma). Harvesting was performed using a 96-well tissue harvester (Perkin Elmer, Shelton, Conn.) followed by five filtration washes with 200 μl ice-cold binding buffer. Filter plates were subsequently dried at 50° C. for 1-2 hours. Fifty μl/well scintillation cocktail (Perkin Elmer, Shelton, Conn.) was added and plates were counted in a Packard Top-Count for 1 min/well.
(§2) In TABLE 1, binding affinity of certain Compounds of the Invention to the μ- and κ-opioid receptors was determined as described above for binding assays using HEK-293 cells.

κ opioid receptor [3] = molecular target: T2, κ opioid receptor; assay: κ-opioid receptor [35S]GTPγS functional assay; format: biochemical
Method: Functional [^35S]GTPγS binding assays were conducted as follows. κ opioid receptor membrane solution was prepared by sequentially adding final concentrations of 0.026 μg/μl κ membrane protein (in-house), 10 μg/mL saponin, 3 μM GDP and 0.20 nM [^35S]GTPγS to binding buffer (100 mM NaCl, 10 mM MgCl2, 20 mM HEPES, pH 7.4) on ice. The prepared membrane solution (190 μl/well) was transferred to 96-shallow well polypropylene plates containing 10 μl of 20× concentrated stock solutions of agonist prepared in DMSO. Plates were incubated for 30 min at a temperature of about 25° C. with shaking. Reactions were terminated by rapid filtration onto 96-well Unifilter GF/B filter plates (Perkin Elmer, Shelton, Conn.) using a 96-well tissue harvester (Packard) and followed by three filtration washes with 200 μl ice-cold binding buffer (10 mM NaH2PO4, 10 mM Na2HPO4, pH 7.4). Filter plates were subsequently dried at 50° C. for 2-3 hours. Fifty μl/well scintillation cocktail (Perkin Elmer, Shelton, Conn.) was added and plates were counted in a Packard Top-Count for 1 min/well.
κ GTP EC50 is the concentration of a compound providing 50% of the maximal response for the compound at a K receptor.
κ GTP Emax (%) is the maximal effect elicited by a compound relative to the effect elicited by U69,593.
as §1

μ-opioid receptor [4] = molecular target: T1, μ-opioid receptor; assay: μ-opioid receptor radioligand dose-displacement binding assay ([3H]-diprenorphine); details: binding assays using HEK-293 cells; read-out: Opioid Receptor Ki (nM) μ
Method: Radioligand dose-displacement binding assays for μ-opioid receptors used 0.3 nM [^3H]-diprenorphine (Perkin Elmer, Shelton, Conn.), with […] membrane protein/well in a final volume of 500 μl binding buffer (10 mM MgCl2, 1 mM EDTA, 5% DMSO, 50 mM HEPES, pH 7.4). Reactions were carried out in the absence or presence of increasing concentrations of unlabeled naloxone. All reactions were conducted in 96-deep well polypropylene plates for 2 hours at room temperature. Binding reactions were terminated by rapid filtration onto 96-well Unifilter GF/C filter plates (Perkin Elmer, Shelton, Conn.), presoaked in 0.5% polyethylenimine using a 96-well tissue harvester (Perkin Elmer, Shelton, Conn.) followed by performing three filtration washes with 500 μl of ice-cold binding buffer. Filter plates were subsequently dried at 50° C. for 2-3 hours. BetaScint scintillation cocktail (Perkin Elmer, Shelton, Conn.) was added (50 μl/well), and plates were counted using a Packard Top-Count for 1 min/well. The data were analyzed using the one-site competition curve fitting functions in GraphPad PRISM™ v. 3.0 or higher (San Diego, Calif.), or an in-house function for one-site competition curve-fitting.
as §2

[5] = functional assays using U-2 OS cells, relative to the effect elicited by DAMGO
[6] = functional assays using U-2 OS cells, relative to the effect elicited by U69,593

Compound `O=C1NC(=O)[C@@]2(CC[C@@]3(O)[C@H]4C(=O)c5ccc(O)cc5[C@@]3(CCN4CC3CC3)C2)N1` [Compound 13, (4bR,4′S,8aS,9S)-11-(cyclopropylmethyl)-3,8a-dihydroxy-7,8,8a,9-tetrahydrospiro[9,4b-(epiminoethano)phenanthrene-6,4′-imidazolidine]-2′,5′,10(5H)-trione] has an EC50 (μ-opioid receptor [1]) of 37.5 ± 6.18 nM, an Emax (μ-opioid receptor [1]; [5]) of 61.3 ± 5.78% and a Ki (κ opioid receptor [2]) of 12.2 ± 0.61 nM. For the same compound, the EC50 (κ opioid receptor [3]) was 8.79 ± 1.26 nM, the Emax (κ opioid receptor [3]; [6]) was 106 ± 2.52% and the Ki (μ-opioid receptor [4]) was 472 ± 40.8 nM.
“(4bR,4′S,8aS,9S,10R)-11-(cyclopropylmethyl)-10-fluoro-8a-hydroxy-3-methoxy-5,7,8,8a,9,10-tetrahydrospiro [9,4b-(epiminoethano)phenanthrene-6,4′-imidazolidine]-2′,5′-dione [Compound 18]” was tested, and the EC50 (μ-opioid receptor [1]; functional assays using U-2 OS cells, read-out: Opioid Receptor μ EC50) was 1550 ± 184 nM, the “Opioid Receptor μ Emax (%)” value (μ-opioid receptor [1]; [5]) was 14.7 ± 0.33% and the EC50 (κ opioid receptor [3]; functional assays using U-2 OS cells, read-out: Opioid Receptor κ EC50) was 1480 ± 125 nM. The “Opioid Receptor κ Emax (%)” value (κ opioid receptor [3]; [6]) was 81.7 ± 0.88%.
